# Test results published in article PMC4086519, “Anti-Trichophyton Activity of Protocatechuates and Their Synergism with Fluconazole” (Evidence-based Complementary and Alternative Medicine : eCAM, 2014).
# Read-outs that look alike come from different tables or passages of the source.
# Assays:
# Format in all cases: cell-based
# [1] = system: Trichophyton mentagrophytes; assay: Minimum fungicide concentration (MFC)
# Protocol: (§1) A qualitative analysis of the fungal viability was performed by transferring a portion of the wells to a plate with Sabouraud (Difco, BD Biosciences) medium and incubating it at 35°C for the time determined for each fungal agent. […] A visual reading was performed to confirm the death or growth inhibition provided by fluconazole and the sixteen semisynthetic substances derived from protocatechuic acid.
# [2] = system: Trichophyton rubrum; assay: Minimum fungicide concentration (MFC)
# Protocol: as §1
# [3] = system: Trichophyton mentagrophytes; assay: Broth microdilution MIC (CLSI M38-A2, modified)
# Protocol: (§2) To evaluate its antifungal activity, […] of dermatophytes were tested: two clinical strains of Trichophyton rubrum (Tr1 and Tr2), Trichophyton rubrum ATCC MYA 3108, two clinical strains of Trichophyton mentagrophytes (Tm1 and Tm2), and Trichophyton mentagrophytes ATCC 40131 (Tm3). The microorganisms were obtained from the collection of the Clinical Mycology Laboratory of the Department of Clinical Analyses at the School of Pharmaceutical Sciences of Universidade Estadual Paulista (UNESP). The strains were cultivated on Sabouraud dextrose agar (Difco, BD Biosciences) and incubated at 28°C for 7-15 days. For all experiments, the strains were cultivated on Potato Dextrose Agar (Difco, BD Biosciences) and incubated at 28°C as described above or until sporulation. The dilution of the synthetic compounds was performed with DMSO (Synth, Diadema, Sao Paulo, Brazil) as described by Scorzoni et al.. […] The antifungal drugs were diluted according to the CLSI […]-A2 document. Stock solutions of Fluconazole (Sigma-Aldrich, St. Louis, MO, USA) were prepared, considering its power. Serial twofold dilutions were prepared according to the recommendations of Zhang and collaborators, with some modifications. The antifungal activity tests were performed using the broth microdilution method as described in […]-A2, a document produced by the Clinical and Laboratory Standards Institute (CLSI, 2008), with modifications. The medium used was RPMI 1640 with L-glutamine (Sigma-Aldrich, St. Louis, MO, USA) buffered to pH 7.0 with 0.165 M morpholinepropanesulfonic acid (MOPS) (Sigma-Aldrich, St. Louis, MO, USA), supplemented with 2% glucose. […] The suspension of conidia was then transferred to small sterile test tubes where they remained for 40 minutes to separate the microconidia, which were lighter and therefore present in the supernatant. […] These suspensions were diluted in RPMI 1640 (Sigma-Aldrich, St. […] Positive (100 μL of RPMI medium with 100 μL of inoculum) and negative (200 μL of RPMI) controls were included in all experiments. The plates were incubated with agitation at 35°C for 7 days. The MIC reading was performed by spectrophotometry at 490 nm.
# [4] = system: Trichophyton rubrum; assay: Broth microdilution MIC (CLSI M38-A2, modified)
# Protocol: as §2
# [5] = system: NOK (oral human keratinocyte) cell lines; assay: Sulphorhodamine B cytotoxicity assay; settings: NOK cells, 24 hours
# Protocol: The cytotoxicity of sixteen semisynthetic compounds derived from protocatechuic acid was assessed using a sulphorhodamine B assay in NOK (oral human keratinocyte) cell lines obtained from the American Type Culture Collection (Manassas, VA, USA). The strains were maintained in bottles appropriate for cell culture with keratinocyte serum free medium (Gibco, Life Technologies) and incubated in standard conditions of 37°C and 5% CO2. Cell concentrations ranging from 2.5 to 5.0 × 10^4 cells/mL were used for the formation of cell monolayers. The concentrations of pure substances were kept in contact with the cells for 24 hours. After the incubation period, the cells were treated with the sulphorhodamine B reagent (Sigma-Aldrich, St. Louis, MO, USA) as previously described by Skehan et al., with some modifications.
# [6] = system: Trichophyton mentagrophytes; assay: Checkerboard synergism assay with fluconazole; settings: for MIC, substances alone / MIC: checkerboard, 168 hours; for MIC: Trichophyton mentagrophytes, read-out: MIC, substances alone
# Protocol: (§3) The drug activity was assessed using a checkerboard method derived from a standardised procedure established by the National Committee for Clinical Laboratory Standards ([…]-A2). Briefly, the test was performed on the same medium used for susceptibility testing. Volumes of 50 μL of each drug in a concentration four times the final concentration were dispensed in 96-well plates ([…], Switzerland). To each well, 100 μL of the fungal suspension was added to produce a final concentration of 5.0 × 10^3 CFU/mL. As a negative control, we used 200 μL of RPMI, while as a positive control, we used 100 μL of RPMI medium with 100 μL of inoculum. The plates were incubated at 35°C, and the reading was completed after 168 hours. We conducted visual and spectrophotometric readings at 490 nm. To determine the effect of combinatorial fractions, we calculated the fractional inhibitory concentration (FIC). The FIC was calculated by taking the MIC of the substance in combination/MIC of the substance alone. The sum of the fractional inhibitory concentration (FIC) of each substance consists of the fractional inhibitory concentration index: (the MIC of drug A in combination/the MIC of drug A alone) + (the MIC of drug B in combination/the MIC of drug B alone).
# [7] = system: Trichophyton rubrum; assay: Checkerboard synergism assay with fluconazole
# Protocol: as §3
# [8] = Tm3, T. mentagrophytes ATCC 40131
# [9] = Tr1, T. rubrum clinical isolate
# [10] = Tr2, T. rubrum clinical isolate
# [11] = Tm1, clinical isolate, 35°C, 7 days
# [12] = Tm2, clinical isolate, 35°C, 7 days
# [13] = Tm3, T. mentagrophytes ATCC 40131, 35°C, 7 days
# [14] = Tr1, T. rubrum clinical isolate, 35°C, 7 days
# [15] = Tr2, T. rubrum clinical isolate, 35°C, 7 days
# [16] = Tr3, T. rubrum ATCC MYA 3108, 35°C, 7 days
Compound,"MFC ([1]; Tm1, clinical isolate)","MFC ([1]; Tm2, clinical isolate)","MFC [1, 8]","MFC [2, 9]","MFC [2, 10]","MFC ([2]; Tr3, T. rubrum ATCC MYA 3108)","MIC [3, 11]","MIC [3, 12]","MIC [3, 13]","MIC [4, 14]","MIC [4, 15]","MIC [4, 16]",also measured
COC(=O)c1ccc(O)c(O)c1 [Protocatechuate methyl],250 mg/L,62.5 mg/L,62.5 mg/L,62.5 mg/L,31.2 mg/L,62.5 mg/L,62.5 mg/L,62.5 mg/L,31.2 mg/L,62.5 mg/L,31.2 mg/L,31.2 mg/L,
"CCCCCCCOC(=O)c1ccc(O)c(O)c1 [Protocatechuate heptyl, protocatechuate heptyl]",3.9 mg/L,0.97 mg/L,3.9 mg/L,1.95 mg/L,1.95 mg/L,1.95 mg/L,3.9 mg/L,0.97 mg/L,3.9 mg/L,1.95 mg/L,1.95 mg/L,1.95 mg/L,"Cytotoxicity IC50 [5]: 78.1 mg/L; MIC of the protocatechuate, substances combined [6]: 0.03 mg/L; association type (in words) [6]: synergistic; reduction in the MIC of fluconazole [6]: fourfold; MIC, substances alone ([6]; Tm1): 3.9 mg/L; MIC, substances alone ([6]; Tm3 (ATCC 40131)): 3.9 mg/L; FIC index ([6]; listed as 9): 0.48; reduction in the MIC of fluconazole ([6]; listed as 9): four-; FIC index [7]: 1.0; association type (in words) [7]: additive; MIC, substances alone ([7]; Tr1, checkerboard, 168 hours): 1.9 mg/L"
"O=C(O)c1ccc(O)c(O)c1 [Acid protocatechuic, Protocatechuic acid (3,4-dihydroxybenzoic)]",,> 250 mg/L,,,250 mg/L,250 mg/L,,250 mg/L,,,250 mg/L,250 mg/L,"MFC ([1]; Trichophyton mentagrophytes): > 250 mg/L; MFC ([1]; Trichophyton mentagrophytes, ATCC40131): 125 mg/L; MFC ([2]; Trichophyton rubrum): 250 mg/L; MIC ([3]; Trichophyton mentagrophytes, 168 h): 250 mg/L; MIC ([3]; Trichophyton mentagrophytes, ATCC40131, 168 h): 125 mg/L; MIC ([4]; Trichophyton rubrum, 168 h): 250 mg/L"
"CC(=O)Oc1ccc(C(=O)O)cc1OC(C)=O [Acid 3.4 diacetoxybenzoic, 3,4-diacetoxybenzoic acid]",,,,,,,,,,,,,"MFC ([1]; Trichophyton mentagrophytes, ATCC40131, Tm3, T. mentagrophytes ATCC 40131, read-out: MFC): 250 mg/L; MFC ([1]; Trichophyton mentagrophytes, Tm1, clinical isolate, read-out: MFC): 250 mg/L; MFC ([1]; Trichophyton mentagrophytes, Tm2, clinical isolate, read-out: MFC): > 250 mg/L; MFC ([2]; Trichophyton rubrum, Tr1, T. rubrum clinical isolate, read-out: MFC): 250 mg/L; MFC ([2]; Trichophyton rubrum, Tr2, T. rubrum clinical isolate, read-out: MFC): > 250 mg/L; MFC ([2]; Trichophyton rubrum, Tr3, T. rubrum ATCC MYA 3108, read-out: MFC): > 250 mg/L; MIC ([3]; Trichophyton mentagrophytes, 168 h, Tm1, clinical isolate, 35°C, 7 days, read-out: MIC): 250 mg/L; MIC ([3]; Trichophyton mentagrophytes, 168 h, Tm2, clinical isolate, 35°C, 7 days, read-out: MIC): > 250 mg/L; MIC ([3]; Trichophyton mentagrophytes, ATCC40131, 168 h, Tm3, T. mentagrophytes ATCC 40131, 35°C, 7 days, read-out: MIC): 250 mg/L; MIC ([4]; Trichophyton rubrum, 168 h, Tr1, T. rubrum clinical isolate, 35°C, 7 days, read-out: MIC): 250 mg/L; MIC ([4]; Trichophyton rubrum, 168 h, Tr2, T. rubrum clinical isolate, 35°C, 7 days, read-out: MIC): > 250 mg/L; MIC ([4]; Trichophyton rubrum, 168 h, Tr3, T. rubrum ATCC MYA 3108, 35°C, 7 days, read-out: MIC): > 250 mg/L"
CCCCCCCCCCCCCCCCOC(=O)c1ccc(O)c(O)c1 [Protocatechuate hexadecyl],> 250 mg/L,> 250 mg/L,> 250 mg/L,> 250 mg/L,> 250 mg/L,> 250 mg/L,> 250 mg/L,> 250 mg/L,> 250 mg/L,> 250 mg/L,> 250 mg/L,> 250 mg/L,
CCOC(=O)c1ccc(O)c(O)c1 [Protocatechuate ethyl],62.5 mg/L,31.2 mg/L,125 mg/L,31.2 mg/L,31.2 mg/L,31.2 mg/L,31.2 mg/L,31.2 mg/L,31.2 mg/L,31.2 mg/L,31.2 mg/L,31.2 mg/L,
CCCOC(=O)c1ccc(O)c(O)c1 [Protocatechuate propyl],62.5 mg/L,62.5 mg/L,31.2 mg/L,15.6 mg/L,31.2 mg/L,31.2 mg/L,15.6 mg/L,62.5 mg/L,15.6 mg/L,15.6 mg/L,31.2 mg/L,31.2 mg/L,
"OC(Cn1cncn1)(Cn1cncn1)c1ccc(F)cc1F [FLU, Fluconazole]",,,,,,,,,,,,,"MIC ([6]; ATCC40131, Tm3 (ATCC 40131)): 0.5 µg/mL; MIC ([6]; Tm1): 1 µg/mL; MIC ([7]; Trichophyton rubrum, Tr1, checkerboard, 168 hours, read-out: MIC, substances alone): 2 µg/mL"
CCCCOC(=O)c1ccc(O)c(O)c1 [Protocatechuate butyl],62.5 mg/L,15.6 mg/L,15.6 mg/L,15.6 mg/L,7.8 mg/L,7.8 mg/L,7.80 mg/L,15.6 mg/L,15.6 mg/L,15.6 mg/L,7.8 mg/L,7.8 mg/L,
CCCCCCCCCCOC(=O)c1ccc(O)c(O)c1 [Protocatechuate decyl],7.8 mg/L,3.9 mg/L,15.6 mg/L,3.9 mg/L,3.9 mg/L,7.8 mg/L,7.8 mg/L,3.9 mg/L,3.90 mg/L,3.9 mg/L,3.9 mg/L,3.90 mg/L,
CCCCCCCCCCCCCCOC(=O)c1ccc(O)c(O)c1 [Protocatechuate tetradecyl],> 250 mg/L,250 mg/L,> 250 mg/L,> 250 mg/L,125 mg/L,> 250 mg/L,> 250 mg/L,125 mg/L,> 250 mg/L,> 250 mg/L,125 mg/L,> 250 mg/L,
CCCCCCCCCCCCCCCCCCOC(=O)c1ccc(O)c(O)c1 [Protocatechuate octadecyl],> 250 mg/L,> 250 mg/L,> 250 mg/L,> 250 mg/L,> 250 mg/L,> 250 mg/L,> 250 mg/L,> 250 mg/L,> 250 mg/L,> 250 mg/L,> 250 mg/L,> 250 mg/L,
CCCCCCCCCCCCOC(=O)c1ccc(O)c(O)c1 [Protocatechuate dodecyl],250 mg/L,62.5 mg/L,62.5 mg/L,> 250 mg/L,125 mg/L,250 mg/L,250 mg/L,62.5 mg/L,31.2 mg/L,> 250 mg/L,125 mg/L,> 250 mg/L,
